Reference: patent publication US20160333419A1, “GENE SIGNATURES ASSOCIATED WITH SENSITIVITY TO MDM2 INHIBITORS” (DAIICHI SANKYO COMPANY, LIMITED, priority 2014, published 2016)

Key:
Experiment in all cases: OncoPanel cytotoxicity assay
Assay type in all cases: cell-based
D283 Med = conditions: Homo sapiens, 72 hour incubation
Summary of the method: (§1)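 Cells grown in RPMI 1640 with 10% FBS (or a special medium) at 37° C, 5% CO2 were treated 24 hours after seeding for 72 hours with 10 concentrations (3.16-fold dilutions, 0.1% DMSO final). Nuclei were dye-stained and imaged; IC50 was fit from percent of control relative cell count.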

RPMI-7951 = conditions: Homo sapiens, 72 hour incubation
Summary of the method: as §1

AU565 = conditions: Homo sapiens, 72 hour incubation
Summary of the method: as §1

Calu6 = conditions: Homo sapiens, Calu-6, 72 hour incubation
Summary of the method: as §1

NCI-H295R = conditions: Homo sapiens, 72 hour incubation
Summary of the method: as §1

DOHH-2 = conditions: Homo sapiens, 72 hour incubation
Summary of the method: as §1

K562 = conditions: Homo sapiens, 72 hour incubation
Summary of the method: as §1

C-4 II = conditions: Homo sapiens, 72 hour incubation
Summary of the method: as §1

SCaBER = conditions: Homo sapiens, 72 hour incubation
Summary of the method: as §1

BE(2)C = conditions: Homo sapiens, 72 hour incubation
Summary of the method: as §1

SNU-1 = conditions: Homo sapiens, SNU1, 72 hour incubation
Summary of the method: as §1

Cal 27 = conditions: Homo sapiens, 72 hour incubation
Summary of the method: as §1

TE 381.T = conditions: Homo sapiens, 72 hour incubation
Summary of the method: as §1

DMS53 = conditions: Homo sapiens, DMS-53, 72 hour incubation
Summary of the method: as §1

CAMA-1 = conditions: Homo sapiens, 72 hour incubation
Summary of the method: as §1

MDA MB 468 = conditions: Homo sapiens, 72 hour incubation
Summary of the method: as §1

U266B1 = conditions: Homo sapiens, 72 hour incubation
Summary of the method: as §1

EB-3 = conditions: Homo sapiens, 72 hour incubation
Summary of the method: as §1

H4 = conditions: Homo sapiens, 72 hour incubation
Summary of the method: as §1

CCRFCEM = conditions: Homo sapiens, CCRF-CEM, 72 hour incubation
Summary of the method: as §1

Raji = conditions: Homo sapiens, 72 hour incubation
Summary of the method: as §1

Y79 = conditions: Homo sapiens, 72 hour incubation
Summary of the method: as §1

HOS = conditions: Homo sapiens, 72 hour incubation
Summary of the method: as §1

RPMI 6666 = conditions: Homo sapiens, 72 hour incubation
Summary of the method: as §1

RPMI 8226 = conditions: Homo sapiens, 72 hour incubation
Summary of the method: as §1

KATO III = conditions: Homo sapiens, 72 hour incubation
Summary of the method: as §1

ACHN = conditions: Homo sapiens, 72 hour incubation
Summary of the method: as §1

SR = conditions: Homo sapiens, 72 hour incubation
Summary of the method: as §1

BV-173 = conditions: Homo sapiens, 72 hour incubation
Summary of the method: as §1

RD = conditions: Homo sapiens, 72 hour incubation
Summary of the method: as §1

BeWo = conditions: Homo sapiens, 72 hour incubation
Summary of the method: as §1

EM-2 = conditions: Homo sapiens, 72 hour incubation
Summary of the method: as §1

RKOE6 = conditions: Homo sapiens, 72 hour incubation
Summary of the method: as §1

T47D = conditions: Homo sapiens, 72 hour incubation
Summary of the method: as §1

T24 = conditions: Homo sapiens, T-24, 72 hour incubation
Summary of the method: as §1

SiHa = conditions: Homo sapiens, 72 hour incubation
Summary of the method: as §1

Colo 320DM = conditions: Homo sapiens, 72 hour incubation
Summary of the method: as §1

BFTC-905 = conditions: Homo sapiens, 72 hour incubation
Summary of the method: as §1

DU145 = conditions: Homo sapiens, DU-145, 72 hour incubation
Summary of the method: as §1

LNCaP = conditions: Homo sapiens, 72 hour incubation
Summary of the method: as §1

| SMILES | IC50 (D283 Med) [µM] | IC50 (RPMI-7951) [µM] | IC50 (AU565) [µM] | IC50 (Calu6) [µM] | IC50 (NCI-H295R) [µM] | IC50 (DOHH-2) [µM] | IC50 (K562) [µM] | IC50 (C-4 II) [µM] | IC50 (SCaBER) [µM] | IC50 (BE(2)C) [µM] | IC50 (SNU-1) [µM] | IC50 (Cal 27) [µM] | IC50 (TE 381.T) [µM] | IC50 (DMS53) [µM] | IC50 (CAMA-1) [µM] | IC50 (MDA MB 468) [µM] | IC50 (U266B1) [µM] | IC50 (EB-3) [µM] | IC50 (H4) [µM] | IC50 (CCRFCEM) [µM] | other results |
| --- | --- | --- | --- | --- | --- | --- | --- | --- | --- | --- | --- | --- | --- | --- | --- | --- | --- | --- | --- | --- | --- |
| CC[C@@H]1CNC2(CC2)CN1C(=O)[C@@H]1C[C@@H](F)CN1C(=O)C1=C(C(C)C)N2C(=N[C@@](C)(c3ccc(Cl)nc3)[C@H]2c2ccc(Cl)c(F)c2)S1 [Compound A, [(5R,6S)-5-(4-Chloro-3-fluorophenyl)-6-(6-chloropyridin-3-yl)-6-methyl-3-(propan-2-yl)-5,6-dihydroimidazo[2,1-b][1,3]thiazol-2-yl][(2S,4R)-2-{[(6R)-6-ethyl-4,7-diazaspiro[2.5]oct-7-yl]carbonyl}-4-fluoropyrrolidin-1-yl]methanone] | 0.529 | > 40 | 23.7 | > 40 | > 40 | 0.123 | > 40 | > 40 | > 40 | 35.3 | 0.412 | > 40 | 37.3 | 38.4 | > 40 | 36.2 | > 40 | > 40 | 0.172 | > 40 | IC50 (Raji): 13.8 µM; IC50 (Y79): 1.05 µM; IC50 (HOS): > 40 µM; IC50 (RPMI 6666): 1.7 µM; IC50 (RPMI 8226): > 40 µM; IC50 (KATO III): 36.6 µM; IC50 (ACHN): 1.07 µM; IC50 (SR): 0.257 µM; IC50 (BV-173): 0.601 µM; IC50 (RD): > 40 µM; IC50 (BeWo): 1.49 µM; IC50 (EM-2): > 40 µM; IC50 (RKOE6): 38.2 µM; IC50 (T47D): 32.3 µM; IC50 (T24): > 40 µM; IC50 (SiHa): > 40 µM; IC50 (Colo 320DM): > 40 µM; IC50 (BFTC-905): > 40 µM; IC50 (DU145): > 40 µM; IC50 (LNCaP): 0.27 µM |
| CC1(C)CCC2(CC1)N[C@@H](C(=O)N[C@@H]1CC[C@@H](C(N)=O)OC1)[C@H](c1ccnc(Cl)c1F)[C@]21C(=O)Nc2cc(Cl)ccc21 [Compound B, (3′R,4′S,5′R)—N-[(3R,6S)-6-carbamoyltetrahydro-2H-pyran-3-yl]-6″-chloro-4′-(2-chloro-3-fluoropyridin-4-yl)-4,4-dimethyl-2″-oxo-1″,2″-dihydrodispiro[cyclohexane-1,2′-pyrrolidine-3′,3″-indole]-5′-carboxamide] | 0.0819 | 8.63 | > 10 | 5.38 | > 10 | 0.0288 | > 10 | 9.1 | > 10 | 9.03 | 0.135 | > 10 | 9.73 | > 10 | > 10 | 8.12 | > 10 | > 10 | 0.024 | > 10 | IC50 (Raji): 5.32 µM; IC50 (Y79): 0.159 µM; IC50 (HOS): > 10 µM; IC50 (RPMI 6666): 0.0793 µM; IC50 (RPMI 8226): 0.065 µM; IC50 (KATO III): > 10 µM; IC50 (ACHN): 0.174 µM; IC50 (SR): 0.0262 µM; IC50 (BV-173): 0.0873 µM; IC50 (RD): 7.2 µM; IC50 (BeWo): 0.317 µM; IC50 (EM-2): > 10 µM; IC50 (RKOE6): 7.59 µM; IC50 (T47D): 7.76 µM; IC50 (T24): > 10 µM; IC50 (SiHa): > 10 µM; IC50 (Colo 320DM): > 10 µM; IC50 (BFTC-905): 8.51 µM; IC50 (DU145): 7.91 µM; IC50 (LNCaP): 0.064 µM |
